Reference: patent US20250127828A1, “BACILLUS […] AND COMPOSITION FOR PREVENTING, TREATING, OR IMPROVING TU[…] SAME” (priority 2023, published 2025)

Columns and labels:
M. tuberculosis = assay: Lung granuloma formation and immune response analysis in both tuberculosis mouse models; type: in vivo, Mycobacterium tuberculosis
[1] = test system: M. tuberculosis XDR strain; type: in vivo, Mycobacterium tuberculosis; conditions: latent model, 30 mg/kg
[2] = test system: M. tuberculosis XDR strain; type: in vivo, Mycobacterium tuberculosis
[3] = test system: M. tuberculosis XDR strain; type: cell-based, Mycobacterium tuberculosis; conditions: infected Raw 264.7 cells, 3 days; effect only at this very high concentration
M. tuberculosis H37Rv = assay: In vitro macrophage infection model, H37Rv, CFU analysis; type: cell-based, Mycobacterium tuberculosis; conditions: infected Raw 264.7 cells, 3 days

Molecule	granuloma formation in the lungs compared to infected control mice (M. tuberculosis)	effect on number of M. tuberculosis in the lungs [1]	lung species diversity (Shanon-based alpha diversity) ([2]; in vivo)	occupancy of M. tuberculosis in the lungs (16S rRNA gene-based lung metagenomics) compared to the infected control group ([2]; in vivo)	survival rate ([2]; in vivo)	concentration with inhibitory effect against XDR strains [3]	concentration showing significant effects against H37Rv (M. tuberculosis H37Rv)	mortality / survival until the end of the experiment ([2]; Balb/c mice, high-dose XDR lung inhalation, probiotics by lung inhalation)
NNC(=O)c1ccncc1 [INH, isoniazid]	no significant reduction	significantly reduced	worsened the severity	did not decrease	16.6%	100 µg/mL	1 μg/mL or 10 μg/mL	–
CO[C@H]1/C=C/O[C@@]2(C)Oc3c(C)c(O)c4c(O)c(c(/C=N/N5CCN(C)CC5)c(O)c4c3C2=O)NC(=O)/C(C)=C\C=C\[C@H](C)[C@H](O)[C@@H](C)[C@@H](O)[C@@H](C)[C@H](OC(C)=O)[C@@H]1C [RIF, rifampicin]	–	–	–	–	32.2%	100 µg/mL	–	–
Lactobacillus	–	–	–	–	–	–	–	died
